pKi: −log10 of the molar value.
Target: T1, purified human Factor XIa (Homo sapiens, UniProt P03951)
T1 construct: purchased Haematologic Technologies
Assay: Factor XIa enzyme inhibition assay (chromogenic substrate S-2366), Ki
Format: biochemical
Settings: substrate S-2366, pH 7.4
Protocol: The effectiveness of compounds of the present invention as inhibitors of the coagulation Factors XIa, VIIa, IXa, Xa, XIIa, plasma kallikrein, thrombin, chemytrypsin or trypsin can be determined using a relevant purified serine protease, respectively, and an appropriate synthetic substrate. The rate of hydrolysis of the chromogenic or fluorogenic substrate by the relevant serine protease was measured both in the absence and presence of compounds of the present invention. […] A decrease in the rate of absorbance or fluorescence change in the presence of inhibitor is indicative of enzyme inhibition. Such methods are known to one skilled in the art. The results of this assay are expressed as the inhibitory constant, Ki.
Factor XIa determinations were made in 50 mM HEPES buffer at pH 7.4 containing 145 mM NaCl, 5 mM KCl, and 0.1% PEG 8000 (polyethylene glycol; JT Baker or Fisher Scientific). Determinations were made using purified human Factor XIa at a final concentration of […] (Haematologic Technologies) and the synthetic substrate S-2366 (pyroGlu-Pro-Arg-pNA; CHROMOGENIX® or AnaSpec) at a concentration of 0.0002-0.001 M.
Values of Ki were determined by allowing the protease to react with the substrate in the presence of the inhibitor. Reactions were allowed to go for periods of 20-180 minutes (depending on the protease) and the velocities (rate of absorbance or fluorescence change versus time) were measured. The following relationships were used to calculate Ki values: (Vmax*S)/(Km+S) (vo−vs)/vs=I/(Ki*(1+S/Km)) for a competitive inhibitor with one binding site; or vs/vo=A+(B−A)/(1+(IC50/(I)^n)); and Ki=IC50/(1+S/Km) for a competitive inhibitor where: […]

T1 sequence (P03951 388-625 limits assumed): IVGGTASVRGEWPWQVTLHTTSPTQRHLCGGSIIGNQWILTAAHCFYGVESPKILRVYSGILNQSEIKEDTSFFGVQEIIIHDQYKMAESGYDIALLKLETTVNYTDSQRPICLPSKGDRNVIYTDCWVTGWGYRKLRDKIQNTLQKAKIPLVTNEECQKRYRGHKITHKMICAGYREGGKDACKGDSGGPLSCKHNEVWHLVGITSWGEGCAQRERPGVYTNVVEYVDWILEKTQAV
T1 sequence (P03951 19-387 partner limits assumed): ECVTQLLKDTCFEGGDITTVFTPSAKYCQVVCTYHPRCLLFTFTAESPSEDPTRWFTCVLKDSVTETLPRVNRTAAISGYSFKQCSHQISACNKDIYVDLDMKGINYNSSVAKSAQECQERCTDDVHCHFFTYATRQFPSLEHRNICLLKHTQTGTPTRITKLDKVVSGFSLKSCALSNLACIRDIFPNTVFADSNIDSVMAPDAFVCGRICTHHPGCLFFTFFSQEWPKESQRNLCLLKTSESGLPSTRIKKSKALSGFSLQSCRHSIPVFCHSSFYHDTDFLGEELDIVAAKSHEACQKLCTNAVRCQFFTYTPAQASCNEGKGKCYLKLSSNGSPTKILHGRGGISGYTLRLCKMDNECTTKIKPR

Structure (SMILES) | pKi
O=C(Nc1ccnc2ccc(Cl)cc12)[C@H](Cc1ccccc1)n1cnc(-c2cc(Cl)ccc2-n2cc(Cl)nn2)cc1=O [Example 124, (S)-2-(4-(5-chloro-2-(4-chloro-1H-1,2,3-triazol-1-yl)phenyl)-6-oxopyrimidin-1(6H)-yl)-N-(6-chloroquinolin-4-yl)-3-phenylpropanamide] | 5.15
O=C(NCc1cccnc1)[C@H](Cc1ccccc1)n1cnc(-c2cc(Cl)ccc2-n2cc(Cl)nn2)cc1=O [Example 77, (S)-2-(4-(5-chloro-2-(4-chloro-1H-1,2,3-triazol-1-yl)phenyl)-6-oxopyrimidin-1(6H)-yl)-3-phenyl-N-(pyridin-3-ylmethyl)propanamide] | 5.84
O=C(Nc1ncn(CC2CCCC2)n1)[C@H](Cc1ccccc1)n1cnc(-c2cc(Cl)ccc2-n2cc(Cl)nn2)cc1=O [Example 21, (S)-2-(4-(5-chloro-2-(4-chloro-1H-1,2,3-triazol-1-yl)phenyl)-6-oxopyrimidin-1(6H)-yl)-N-(1-(cyclopentylmethyl)-1H-1,2,4-triazol-3-yl)-3-phenylpropanamide] | 6.26
O=C(NCc1nccs1)[C@H](Cc1ccccc1)n1cnc(-c2cc(Cl)ccc2-n2cc(Cl)nn2)cc1=O [Example 50, (S)-2-(4-(5-chloro-2-(4-chloro-1H-1,2,3-triazol-1-yl)phenyl)-6-oxopyrimidin-1(6H)-yl)-3-phenyl-N-(thiazol-2-ylmethyl)propanamide] | 5.18
COC(=O)Cc1ccc(NC(=O)[C@H](Cc2ccccc2)n2cnc(-c3cc(Cl)ccc3-n3cc(Cl)nn3)cc2=O)cc1 [Example 45, methyl (S)-2-(4-(2-(4-(5-chloro-2-(4-chloro-1H-1,2,3-triazol-1-yl)phenyl)-6-oxopyrimidin-1(6H)-yl)-3-phenylpropanamido)phenyl)acetate] | 7.05
O=C(O)c1ccc(NC(=O)C(Cc2ccccc2)N2CCC(c3c(F)ccc(Cl)c3F)=CC2=O)cc1 (stereo not shown) [Example 129, 4-{2-[4-(3-Chloro-2,6-difluorophenyl)-6-oxo-1,2,3,6-tetrahydropyridin-1-yl]-3-phenylpropanamido}benzoic Acid] | 7.11
COCCNC(=O)[C@H](Cc1ccccc1)n1cnc(-c2cc(Cl)ccc2-n2cc(Cl)nn2)cc1=O [Example 85, (S)-2-(4-(5-chloro-2-(4-chloro-1H-1,2,3-triazol-1-yl)phenyl)-6-oxopyrimidin-1(6H)-yl)-N-(2-methoxyethyl)-3-phenylpropanamide] | 5.76
O=C(Nc1ccc(Cc2ccncc2)cc1)[C@H](Cc1ccccc1)n1cnc(-c2cc(Cl)ccc2-n2cc(Cl)nn2)cc1=O [Example 24, (S)-2-(4-(5-chloro-2-(4-chloro-1H-1,2,3-triazol-1-yl)phenyl)-6-oxopyrimidin-1(6H)-yl)-3-phenyl-N-(4-(pyridin-4-ylmethyl)phenyl)propanamide] | 6.95
O=C(NC1CCC(O)CC1)[C@H](Cc1ccccc1)n1cnc(-c2cc(Cl)ccc2-n2cc(Cl)nn2)cc1=O (stereo partly drawn) [Example 103, (S)-2-(4-(5-chloro-2-(4-chloro-1H-1,2,3-triazol-1-yl)phenyl)-6-oxopyrimidin-1(6H)-yl)-N-(4-hydroxycyclohexyl)-3-phenylpropanamide] | 6.90
O=C(NCCc1ncn[nH]1)[C@H](Cc1ccccc1)n1cnc(-c2cc(Cl)ccc2-n2cc(Cl)nn2)cc1=O [Example 82, (S)-N-(2-(1H-1,2,4-triazol-5-yl)ethyl)-2-(4-(5-chloro-2-(4-chloro-1H-1,2,3-triazol-1-yl)phenyl)-6-oxopyrimidin-1(6H)-yl)-3-phenylpropanamide] | 5.13
O=C1NCc2ccc(NC(=O)[C@H](Cc3ccccc3)n3cnc(-c4cc(Cl)ccc4-n4cc(Cl)nn4)cc3=O)cc21 [Example 117, (S)-2-(4-(5-chloro-2-(4-chloro-1H-1,2,3-triazol-1-yl)phenyl)-6-oxopyrimidin-1(6H)-yl)-N-(3-oxoisoindolin-5-yl)-3-phenylpropanamide] | 6.99
O=C(Nc1cnns1)[C@H](Cc1ccccc1)n1cnc(-c2cc(Cl)ccc2-n2cc(Cl)nn2)cc1=O [Example 36, (S)-2-(4-(5-chloro-2-(4-chloro-1H-1,2,3-triazol-1-yl)phenyl)-6-oxopyrimidin-1(6H)-yl)-3-phenyl-N-(1,2,3-thiadiazol-5-yl)propanamide] | 5.87
O=C(O)C[C@H]1CC[C@H](NC(=O)[C@H](Cc2ccccc2)n2cnc(-c3cc(Cl)ccc3-n3cc(Cl)nn3)cc2=O)CC1 [Example 108, 2-((1S,4r)-4-((S)-2-(4-(5-chloro-2-(4-chloro-1H-1,2,3-triazol-1-yl)phenyl)-6-oxopyrimidin-1(6H)-yl)-3-phenylpropanamido)cyclohexyl)acetic acid] | 6.66
Cc1nccn1-c1ccc(NC(=O)[C@H](Cc2ccccc2)n2cnc(-c3cc(Cl)ccc3-n3cc(Cl)nn3)cc2=O)cc1 [Example 93, (S)-2-(4-(5-chloro-2-(4-chloro-1H-1,2,3-triazol-1-yl)phenyl)-6-oxopyrimidin-1(6H)-yl)-N-(4-(2-methyl-1H-imidazol-1-yl)phenyl)-3-phenylpropanamide] | 6.95
O=C(NCCN1CCCC1)[C@H](Cc1ccccc1)n1cnc(-c2cc(Cl)ccc2-n2cc(Cl)nn2)cc1=O [Example 69, (S)-2-(4-(5-chloro-2-(4-chloro-1H-1,2,3-triazol-1-yl)phenyl)-6-oxopyrimidin-1(6H)-yl)-3-phenyl-N-(2-(pyrrolidin-1-yl)ethyl)propanamide] | 5.12

The next lines start with the values.

pKi | Structure (SMILES)
5.52 | CC(=O)NC1CCN(C(=O)[C@H](Cc2ccccc2)n2cnc(-c3cc(Cl)ccc3-n3cc(Cl)nn3)cc2=O)CC1 [Example 102, (S)-N-(1-(2-(4-(5-chloro-2-(4-chloro-1H-1,2,3-triazol-1-yl)phenyl)-6-oxopyrimidin-1(6H)-yl)-3-phenylpropanoyl)piperidin-4-yl)acetamide]
5.31 | CCOC(=O)c1cn2c(n1)CN(C(=O)[C@H](Cc1ccccc1)n1cnc(-c3cc(Cl)ccc3-n3cc(Cl)nn3)cc1=O)CC2 [Example 65, ethyl (S)-7-(2-(4-(5-chloro-2-(4-chloro-1H-1,2,3-triazol-1-yl)phenyl)-6-oxopyrimidin-1(6H)-yl)-3-phenylpropanoyl)-5,6,7,8-tetrahydroimidazo[1,2-a]pyrazine-2-carboxylate]
7.65 | O=C(Nc1cccc2[nH]ccc12)[C@H](Cc1ccccc1)n1cnc(-c2cc(Cl)ccc2-n2cc(Cl)nn2)cc1=O [Example 26, (S)-2-(4-(5-chloro-2-(4-chloro-1H-1,2,3-triazol-1-yl)phenyl)-6-oxopyrimidin-1(6H)-yl)-N-(1H-indol-4-yl)-3-phenylpropanamide]
5.44 | COC(=O)CCNC(=O)[C@H](Cc1ccccc1)n1cnc(-c2cc(Cl)ccc2-n2cc(Cl)nn2)cc1=O [Example 61, methyl (S)-3-(2-(4-(5-chloro-2-(4-chloro-1H-1,2,3-triazol-1-yl)phenyl)-6-oxopyrimidin-1(6H)-yl)-3-phenylpropanamido)propanoate]
6.20 | O=C(Nc1n[nH]c2cccnc12)[C@H](Cc1ccccc1)n1cnc(-c2cc(Cl)ccc2-n2cc(Cl)nn2)cc1=O [Example 122, (S)-2-(4-(5-chloro-2-(4-chloro-1H-1,2,3-triazol-1-yl)phenyl)-6-oxopyrimidin-1(6H)-yl)-3-phenyl-N-(1H-pyrazolo[4,3-b]pyridin-3-yl)propanamide]
5.21 | NC(=O)CCNC(=O)[C@H](Cc1ccccc1)n1cnc(-c2cc(Cl)ccc2-n2cc(Cl)nn2)cc1=O [Example 59, (S)-N-(3-amino-3-oxopropyl)-2-(4-(5-chloro-2-(4-chloro-1H-1,2,3-triazol-1-yl)phenyl)-6-oxopyrimidin-1(6H)-yl)-3-phenylpropanamide]
6.20 | Cn1ncc2cc(CNC(=O)[C@H](Cc3ccccc3)n3cnc(-c4cc(Cl)ccc4-n4cc(Cl)nn4)cc3=O)ccc21 [Example 79, (S)-2-(4-(5-chloro-2-(4-chloro-1H-1,2,3-triazol-1-yl)phenyl)-6-oxopyrimidin-1(6H)-yl)-N-((1-methyl-1H-indazol-5-yl)methyl)-3-phenylpropanamide]
6.26 | O=C(NCc1ccncc1)[C@H](Cc1ccccc1)n1cnc(-c2cc(Cl)ccc2-n2cc(Cl)nn2)cc1=O [Example 74, (S)-2-(4-(5-chloro-2-(4-chloro-1H-1,2,3-triazol-1-yl)phenyl)-6-oxopyrimidin-1(6H)-yl)-3-phenyl-N-(pyridin-4-ylmethyl)propanamide]
4.88 | O=C([C@H](Cc1ccccc1)n1cnc(-c2cc(Cl)ccc2-n2cc(Cl)nn2)cc1=O)N1CCC(Cc2ccccc2)CC1 [Example 72, (S)-3-(1-(4-benzylpiperidin-1-yl)-1-oxo-3-phenylpropan-2-yl)-6-(5-chloro-2-(4-chloro-1H-1,2,3-triazol-1-yl)phenyl)pyrimidin-4(3H)-one]
7.30 | O=C(Nc1ccc(-c2ccncc2)cc1)[C@H](Cc1ccccc1)n1cnc(-c2cc(Cl)ccc2-n2cc(Cl)nn2)cc1=O [Example 25, (S)-2-(4-(5-chloro-2-(4-chloro-1H-1,2,3-triazol-1-yl)phenyl)-6-oxopyrimidin-1(6H)-yl)-3-phenyl-N-(4-(pyridin-4-yl)phenyl)propanamide]
